Each structure is given as a SMILES string.

In the assay the target is T1, TRPM3 channels (Homo sapiens, UniProt Q9HCF6).
T1 construct: expressed in transfected cells; host or cells: HEK293 (transient)
Put plainly: TRP Family FLIPR Assay, TRPM3. The following applies: HEK293 cells (transient). The format is cell-based. Here is the method:
The compound of Example 5 was tested for selectivity against a panel of Human TRP family ion channels in a TRP Family FLIPR Assay as described below. • 1. TRPC3 channels (human TRPC3 variant 1 gene, expressed in HEK293 cells). • 2. TRPC4 channels (human TRPC4 gene, expressed in HEK293 cells). • 3. TRPC5 channels (human TRPC5 gene, expressed in HEK293 cells). • 4. TRPC6 channels (human TRPC6 gene, expressed in HEK293 cells). • 5. TRPM2 channels (human TRPM2 gene, transiently expressed in HEK293 cells). • 6. TRPM3 channels (human TRPM3 gene, transiently expressed in HEK293 cells). • 7. TRPM4 channels (human TRPM4 gene, expressed in CHO cells). • 8. […]
Data acquisition was performed via the FLIPR Control software supplied with the FLIPR System (MDS-AT) and data was analyzed using Microsoft Excel (Microsoft Corp., Redmond, WA) or GraphPad Prism. […]
[formula] where Base is the response at low concentrations of test article, Max is the maximum response at high concentrations, xhalf the EC50, or IC50, the concentration of test article producing either half-maximal activation or inhibition, and rate is the Hill coefficient. […] No assumptions about the fit parameters was made; the fit parameters were determined by the algorithm.
The effect of each test article was evaluated at eight (8) concentrations: 0.003, 0.01, 0.03, 0.1, 0.3, 1, 3 and 10 μM, n≤4 wells/concentration). […]

T1 sequence (Q9HCF6 whole entry): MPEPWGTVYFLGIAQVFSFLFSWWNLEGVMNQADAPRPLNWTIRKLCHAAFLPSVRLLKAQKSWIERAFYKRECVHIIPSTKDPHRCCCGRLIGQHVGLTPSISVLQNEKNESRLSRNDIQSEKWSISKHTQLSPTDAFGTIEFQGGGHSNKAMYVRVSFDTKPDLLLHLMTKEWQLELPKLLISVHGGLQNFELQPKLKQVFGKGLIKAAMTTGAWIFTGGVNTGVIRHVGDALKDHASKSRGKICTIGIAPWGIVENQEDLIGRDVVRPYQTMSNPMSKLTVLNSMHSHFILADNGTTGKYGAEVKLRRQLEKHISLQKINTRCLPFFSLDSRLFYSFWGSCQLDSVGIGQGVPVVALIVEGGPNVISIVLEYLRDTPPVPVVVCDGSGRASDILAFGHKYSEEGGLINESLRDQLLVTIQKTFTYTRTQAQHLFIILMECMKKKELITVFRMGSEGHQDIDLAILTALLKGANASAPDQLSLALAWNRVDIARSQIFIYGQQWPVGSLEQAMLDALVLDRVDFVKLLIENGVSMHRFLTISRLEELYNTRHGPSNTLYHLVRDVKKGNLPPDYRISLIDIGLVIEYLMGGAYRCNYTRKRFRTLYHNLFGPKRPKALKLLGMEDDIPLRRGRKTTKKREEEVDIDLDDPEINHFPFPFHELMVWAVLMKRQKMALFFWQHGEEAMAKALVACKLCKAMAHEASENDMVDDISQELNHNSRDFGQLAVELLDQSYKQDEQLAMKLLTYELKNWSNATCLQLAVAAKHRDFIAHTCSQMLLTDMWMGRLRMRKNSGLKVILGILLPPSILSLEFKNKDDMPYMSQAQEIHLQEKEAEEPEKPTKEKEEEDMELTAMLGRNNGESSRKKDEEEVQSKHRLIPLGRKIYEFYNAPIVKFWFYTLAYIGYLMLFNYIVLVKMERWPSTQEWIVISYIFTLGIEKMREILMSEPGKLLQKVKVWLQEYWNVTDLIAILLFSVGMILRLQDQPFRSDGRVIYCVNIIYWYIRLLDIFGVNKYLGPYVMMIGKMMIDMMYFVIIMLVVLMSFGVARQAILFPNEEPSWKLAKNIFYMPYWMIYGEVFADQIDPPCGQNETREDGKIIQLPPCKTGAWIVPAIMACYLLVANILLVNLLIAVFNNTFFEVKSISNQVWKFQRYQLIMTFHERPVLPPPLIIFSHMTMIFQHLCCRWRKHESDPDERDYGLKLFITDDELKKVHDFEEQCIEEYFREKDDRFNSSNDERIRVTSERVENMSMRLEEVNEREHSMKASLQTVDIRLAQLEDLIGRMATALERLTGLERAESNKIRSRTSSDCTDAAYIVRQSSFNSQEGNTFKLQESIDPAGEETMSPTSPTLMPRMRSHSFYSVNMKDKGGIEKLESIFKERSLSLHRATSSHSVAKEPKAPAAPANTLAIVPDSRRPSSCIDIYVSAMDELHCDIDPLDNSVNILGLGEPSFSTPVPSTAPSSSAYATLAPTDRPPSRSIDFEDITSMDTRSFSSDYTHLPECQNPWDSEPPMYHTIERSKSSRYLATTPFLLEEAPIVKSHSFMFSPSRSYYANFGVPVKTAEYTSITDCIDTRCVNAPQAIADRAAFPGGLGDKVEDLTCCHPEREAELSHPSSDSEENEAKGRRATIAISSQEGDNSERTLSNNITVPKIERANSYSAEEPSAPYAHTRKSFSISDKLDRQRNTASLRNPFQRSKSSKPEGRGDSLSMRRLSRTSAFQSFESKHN

What is called EC50 is the midpoint of the concentration-response curve. By IC50 is commonly meant the point on the concentration scale where inhibition reaches its midpoint. In the case of `CC(C)(O)c1cnc(N2C[C@@]3(CC[C@@H](F)[C@](C)(Cn4cnc5ccc(C#N)cc54)C3)OC2=O)cn1` (single isomer, unassigned) [Example 5], the EC50 (agonist mode, vs EMAX of pregnenolone 100 μM, read-out: EC50 hTRPM3) was more than 10 µM. Besides, the IC50 (antagonist mode, activated with pregnenolone 30 μM, 0.003-10 μM, read-out: IC50 hTRPM3) was more than 10 µM.

For the origin of these results see patent US12391683B2, “Therapeutic compounds and methods” (Actio Biosciences, Inc., priority 2022, dated 2025).
